Measured values reported in patent US5919464A, “Treatment of aberrant cellular states with biomodulators” (University of New Mexico, priority 1993, dated 1999).

Test system: B16 melanoma cells
Assay: effect of swainsonine on cytotoxic T-lymphocytes (51Cr cytotoxicity assay)
Assay type: in vivo, mouse
Protocol: The cytotoxicity assay used two targets: YAC-1, for natural killer cell targets and B16 melanoma cells, for cytolytic T-cell targets. The YAC-1 cells were labelled in GKN (glucose/KCl/NaCl) with ^51 Cr (NEN-DuPont,400-1200 Ci/g activity) for 60 min. The B16's were ^51 Cr labelled in complete α-MEM media for 60 min. Both targets were washed twice through whole fetal calf serum to remove damaged and dead cells and then suspended in complete RPMI at a final concentration of 1×10^5 cells/ml. The spleen cells (effector cells) were plated in round bottom 96 well trays starting at 1×10^7 cells/ml (100μl/well), using a halving dilution that provided splenocyte concentrations of 10^6, 5×10^5, 2.5×10^5, 1.25×10^5, 6.25×10^4 and 3.125×10^4, all done in triplicate. The target cells were added at 1×10^4 cell/100 μl/well; this gave an effector:target cell ratio ranging from 100:1 to 3:1. Controls included spontaneous ^51 Cr release and 100% lysis (10% triton treatment). The trays were centrifuged at 50×g for 5 min. and incubated in a CO2 incubator at 37° C. for 16 hours. The trays were spun again at 50×g for 5 minutes and 100 μl removed from each well for counting. A Packard gamma counter (United Technologies) was used for counting. Each sample was counted for 1 min. giving a 5% counting efficiency. The following equation was used to determine percent lysis. [formula]
The effector:target ratios were then plotted against percent lysis and a simple line equation was determined for each treatment group. The slope of this line was then used to determine the total effector kill efficiency.
The ^51 Cr cytotoxicity assay was also run with the B16 melanoma cells as the target and the splenocytes from the same mice as above as the effector cells. The baseline mice (no tumor/no Sw) and the control mice (tumor/no Sw) had very similar line shapes and slopes. There were significant differences (p=0.03) between the presence and absence of tumor (see Table in FIG. 68).

With `O[C@H]1[C@H]2[C@H](O)CCCN2C[C@H]1O` [Swainsonine, swainsonine] the “increase in line slope (kill efficiency)” value (0.1 μg Sw alone) was 104%, the “CTL activity before exposure to specific target” value (0.1 μg Sw for 3 weeks, in words) was “significant increase in the CTL activity” and the “convertability from NK to CTL” value (0.1 μg Sw with tumors, tumor control 17.5%) was 39%.
